Data: US20080031950A1, “Novel anelgesic combination” (NECTID INC., priority 2007, published 2008)
Counter-ions that a name gives are not always drawn.

System: patients suffering from Chronic non-cancer pain (CNCP)
Assay: Controlled human clinical trial, pain scored by visual analogue scale (VAS)
Type: in vivo
Conditions: mean ± SD, N = 10
Protocol: A typical study determined the efficacy of tramadol and […] as monotherapy and a combination of naproxen and a slow release tramadol for the treatment of pain and pain related conditions
• Tramadol hydrochloride: Generic Tramadol Hydrochloride tablets 50 mg, • Naproxen: Generic Neproxen tablets 250 mg • Slow Release Tramadol Hydrochloride: a) Example 1, b) Ultram ER 100 mg
• Treatment Drugs per day per patient • 1. Treatment A; Tramadol hydrochloride 100 mg • 2. Treatment B: Naproxen 250 mg • 3. Treatment C: Example 1 • 4. Treatment D: Ultram ER 100 mg+Naproxen 250 mg • 5. Treatment E: Example 2
The administered dosage comprised either tramadol hydrochloride (100 mg) or naproxen 250 mg or a combination of naproxen (250 mg) and slow release tramadol hydrochloride (100 mg) selected from Treatments D or a combination of naproxen 250 mg and a slow release tramadol 100 mg (Treatment C) was administered once a day to the patients in a long-term clinical trial.
40 patients were used in a clinical trial were suffering from Chronic non-cancer pain (CNCP), defined as pain for longer than 6 months, including neuropathic pain, osteoarthritis, rheumatoid arthritis, fibromyalgia, and back and musculoskeletal pain were included in the clinical trial. No effort was made to segregate the patients based on the type of pain nor did we evaluate the extent of pain relief on the basis of pain type.
Those patients with migraines, dental pain, abdominal pains (from chronic pancreatitis, kidney stones, etc.) and ischemic pain from vascular disease were excluded because they are usually not classified as CNCP. Patients with history of addiction (alcohol or drugs) were excluded from the trials
Randomization was performed with computer-generated random numbers in blocks of 10. Randomization codes of the monotherapy or combination therapy treatments were placed in sequentially numbered, opaque, sealed envelopes in the biopsy center.
Pain was assessed using a visual analogue scale (VAS) graded from 0-100 mm. Pain scoring was performed every three hours after drug administration for a total of 48 hours.
The patients were taught with a standard method by the physician how to use a VAS scoring from 0 to 100 mm to grade the intensity of pain experienced during the treatment. On that scale, the left endpoint, 0, was defined as no pain and the right endpoint 100, as the worst pain the patient could imagine. There were no further marks on the line. The intensity of pain was indicated by the distance in millimeters from the left end. Patients were asked to grade the pain intensity immediately after the administration of drugs and every three hour after for 24 hours by drawing a vertical line over each VAS line. The doctors who prescribed the medicines obtained all the VAS forms for that specific patient.
Data are expressed as means±SD. Differences in VAS were analyzed with use of the unpaired Student t test and differences in pain score reductions between the two groups were analyzed with use of the Mann-Whitney U test for the median difference. Similar statistical tests were used for between group comparisons of other outcome variables as appropriate. A two tailed P value of less than. […] SAS software was used for the statistical analysis.
We considered that a clinically significant benefit of using […] and slow release tramadol would be a reduction in the pain score (VAS) of at least 15% compared to the monotherapy with either tramadol hydrochloride or naproxen or placebo. Alternatively, the dose reduction of at least 15% of either NSAID or tramadol when used as combination over the monotherapy as significant benefit

[1] = VAS time 0 hours, scale 0-100 mm

Row | Compound | Pain scored by VAS [1] [mm] | Pain scored by VAS (VAS time 3 hours) [mm] | Pain scored by VAS (VAS time 6 hours) [mm] | Pain scored by VAS (VAS time 9 hours) [mm] | Pain scored by VAS (VAS time 12 hours) [mm] | Pain scored by VAS (VAS time 15 hours) [mm] | Pain scored by VAS (VAS time 18 hours) [mm] | Pain scored by VAS (VAS time 21 hours) [mm] | Pain scored by VAS (VAS time 24 hours) [mm]
1 | COc1ccc2cc([C@H](C)C(=O)O)ccc2c1 [Treatment B, (+)-(S)-2-(6-methoxynaphthalen-2-yl)propanoic acid] | 33.9 ± 19.1 | 18.5 ± 19.1 | 13.9 ± 21.1 | 13.8 ± 20.3 | 14.6 ± 18.6 | 17.1 ± 21.5 | 18.9 ± 19.7 | 20.1 ± 18.3 | 24.8 ± 20.9
2 | COc1cccc([C@@]2(O)CCCC[C@@H]2CN(C)C)c1 (racemic) [Treatment A, (±) cis-2-[(dimethylamino)methyl]-1-(3-methoxyphenyl)cyclo-hexanol hydrochloride] | 32.4 ± 21.2 | 23.1 ± 20.1 | 18.8 ± 20.6 | 14.9 ± 17.2 | 13.1 ± 21.2 | 13.9 ± 19.2 | 15.4 ± 21.3 | 14.5 ± 19.2 | 13.9 ± 19.2
